Common to all, as to assay type: biochemical
The target in one experiment is PI3K-delta (Homo sapiens, UniProt O00329). The experiment is described as follows: PI3K-delta fluorescence polarization assay. The settings on record: read-out: PI3Kδ Avg. IC50. In general terms: In fluorescence polarisation assays a small probe gives low polarisation when free and higher when bound to something large.
A further experiment concerns the target PI3K-beta (Homo sapiens, UniProt P42338). The experiment is described as follows: PI3K-beta fluorescence polarization assay. The note with it: read-out: PI3Kβ Avg. IC50. In outline: (§1)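 Reactions used 5 ng enzyme with 2.5 μM diC8-PI(4,5)P2 and 25 μM ATP in 5 mM HEPES pH 7, 2.5 mM MgCl2, run 1 h at 25° C. After an EDTA quench (10 mM), 100 nM GST-GRP1 PH domain and 5 nM BODIPY-TMR-IP4 were added and fluorescence polarization was read.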

The next experiment deals with PI3K-alpha (Homo sapiens, UniProt P42336). Kind of experiment: PI3K-alpha fluorescence polarization assay.
Sequence of PI3K-alpha (P42336 whole entry, species assumed): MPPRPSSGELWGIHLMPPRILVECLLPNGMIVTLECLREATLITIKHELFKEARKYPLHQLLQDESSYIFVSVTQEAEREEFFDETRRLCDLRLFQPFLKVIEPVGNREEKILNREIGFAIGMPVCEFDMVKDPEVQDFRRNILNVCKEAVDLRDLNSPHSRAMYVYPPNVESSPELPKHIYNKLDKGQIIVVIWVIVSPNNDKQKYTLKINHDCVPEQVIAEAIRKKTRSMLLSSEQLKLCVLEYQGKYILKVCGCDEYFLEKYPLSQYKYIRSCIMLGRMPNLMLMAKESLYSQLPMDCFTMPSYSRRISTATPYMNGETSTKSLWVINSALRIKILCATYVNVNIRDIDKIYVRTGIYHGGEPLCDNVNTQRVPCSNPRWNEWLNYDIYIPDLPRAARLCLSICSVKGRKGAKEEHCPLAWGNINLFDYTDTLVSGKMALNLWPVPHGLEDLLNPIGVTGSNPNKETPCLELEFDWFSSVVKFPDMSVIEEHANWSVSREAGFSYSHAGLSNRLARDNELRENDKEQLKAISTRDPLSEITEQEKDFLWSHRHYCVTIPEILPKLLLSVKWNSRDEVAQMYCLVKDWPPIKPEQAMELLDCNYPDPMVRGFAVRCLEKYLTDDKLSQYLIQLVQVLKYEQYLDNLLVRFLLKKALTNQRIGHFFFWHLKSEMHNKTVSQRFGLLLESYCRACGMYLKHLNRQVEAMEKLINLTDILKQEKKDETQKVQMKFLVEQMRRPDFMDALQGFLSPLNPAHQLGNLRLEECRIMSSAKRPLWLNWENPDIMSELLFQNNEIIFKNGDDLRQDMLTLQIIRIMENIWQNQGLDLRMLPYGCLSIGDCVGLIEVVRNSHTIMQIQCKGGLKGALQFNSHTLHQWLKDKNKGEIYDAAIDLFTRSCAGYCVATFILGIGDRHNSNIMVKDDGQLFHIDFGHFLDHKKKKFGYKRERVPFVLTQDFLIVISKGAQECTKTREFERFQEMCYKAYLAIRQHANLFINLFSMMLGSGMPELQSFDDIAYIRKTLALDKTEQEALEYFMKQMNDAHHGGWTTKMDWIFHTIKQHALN
Sequence of PI3K-alpha (P27986 whole entry partner, species assumed): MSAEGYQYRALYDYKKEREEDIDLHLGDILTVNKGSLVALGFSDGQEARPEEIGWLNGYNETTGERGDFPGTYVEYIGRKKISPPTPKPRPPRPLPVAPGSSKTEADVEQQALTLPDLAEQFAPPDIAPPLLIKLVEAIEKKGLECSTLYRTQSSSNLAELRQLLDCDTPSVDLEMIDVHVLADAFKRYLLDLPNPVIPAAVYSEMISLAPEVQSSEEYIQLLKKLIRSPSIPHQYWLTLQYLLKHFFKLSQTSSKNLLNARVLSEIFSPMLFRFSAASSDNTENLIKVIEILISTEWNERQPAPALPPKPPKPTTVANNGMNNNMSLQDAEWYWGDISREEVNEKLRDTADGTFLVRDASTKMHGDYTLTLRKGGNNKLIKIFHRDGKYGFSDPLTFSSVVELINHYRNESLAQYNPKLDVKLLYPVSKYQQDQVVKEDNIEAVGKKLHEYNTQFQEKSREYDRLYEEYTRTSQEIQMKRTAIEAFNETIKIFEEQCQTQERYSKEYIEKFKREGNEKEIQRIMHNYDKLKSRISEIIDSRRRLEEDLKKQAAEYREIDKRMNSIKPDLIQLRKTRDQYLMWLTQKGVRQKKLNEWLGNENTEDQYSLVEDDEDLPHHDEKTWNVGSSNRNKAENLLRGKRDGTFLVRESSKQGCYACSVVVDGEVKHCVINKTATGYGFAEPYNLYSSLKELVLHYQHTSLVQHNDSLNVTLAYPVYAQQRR
A further experiment has as its target T1, human TOR (Homo sapiens, UniProt P42345).
T1 construct: FLAG
Kind of experiment: mTOR enzyme assay (DELFIA, His6-S6K substrate). The note with it: read-out: mTOR Kinase Avg. IC50.

Another experiment has as its target PI3K-gamma (Homo sapiens, UniProt P48736). The experiment is described as follows: PI3K-gamma fluorescence polarization assay. The settings on record: PI3Kγ Avg. IC50. In outline:
as §1

Read-outs that look alike come from different tables or passages of the source.

The term IC50 denotes the concentration that inhibits the measured activity by half.

Sequence of PI3K-delta (O00329 whole entry, species assumed, the tested form may be a part): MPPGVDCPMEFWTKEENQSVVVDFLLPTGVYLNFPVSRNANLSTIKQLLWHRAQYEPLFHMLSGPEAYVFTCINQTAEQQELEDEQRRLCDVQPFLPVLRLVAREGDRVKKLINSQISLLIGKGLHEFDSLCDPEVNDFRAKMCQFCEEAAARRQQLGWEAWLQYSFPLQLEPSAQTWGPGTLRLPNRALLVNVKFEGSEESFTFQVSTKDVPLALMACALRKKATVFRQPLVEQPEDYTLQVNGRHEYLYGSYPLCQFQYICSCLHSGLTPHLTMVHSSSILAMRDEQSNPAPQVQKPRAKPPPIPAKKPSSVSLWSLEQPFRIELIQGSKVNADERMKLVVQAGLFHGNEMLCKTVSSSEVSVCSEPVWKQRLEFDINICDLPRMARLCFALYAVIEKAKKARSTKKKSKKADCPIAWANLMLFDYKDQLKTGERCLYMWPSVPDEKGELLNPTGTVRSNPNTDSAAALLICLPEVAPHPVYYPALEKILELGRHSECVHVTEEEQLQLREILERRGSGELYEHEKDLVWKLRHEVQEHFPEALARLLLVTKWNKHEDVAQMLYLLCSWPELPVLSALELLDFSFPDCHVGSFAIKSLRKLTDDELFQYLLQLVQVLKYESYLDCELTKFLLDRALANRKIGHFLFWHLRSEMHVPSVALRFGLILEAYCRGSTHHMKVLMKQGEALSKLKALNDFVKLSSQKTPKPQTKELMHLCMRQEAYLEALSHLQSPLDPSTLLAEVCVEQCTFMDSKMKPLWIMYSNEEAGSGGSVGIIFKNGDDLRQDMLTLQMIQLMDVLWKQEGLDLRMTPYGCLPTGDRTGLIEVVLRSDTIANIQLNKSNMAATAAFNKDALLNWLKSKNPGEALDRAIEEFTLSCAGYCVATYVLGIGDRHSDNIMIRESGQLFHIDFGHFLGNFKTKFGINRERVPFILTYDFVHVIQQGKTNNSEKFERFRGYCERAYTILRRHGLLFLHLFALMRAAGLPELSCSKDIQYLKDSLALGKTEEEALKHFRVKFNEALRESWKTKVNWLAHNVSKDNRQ
Sequence of PI3K-delta (P27986 whole entry partner, species assumed, the tested form may be a part): as the sequence (P27986 whole entry partner, species assumed) above
Sequence of PI3K-beta (P42338 whole entry, species assumed, the tested form may be a part): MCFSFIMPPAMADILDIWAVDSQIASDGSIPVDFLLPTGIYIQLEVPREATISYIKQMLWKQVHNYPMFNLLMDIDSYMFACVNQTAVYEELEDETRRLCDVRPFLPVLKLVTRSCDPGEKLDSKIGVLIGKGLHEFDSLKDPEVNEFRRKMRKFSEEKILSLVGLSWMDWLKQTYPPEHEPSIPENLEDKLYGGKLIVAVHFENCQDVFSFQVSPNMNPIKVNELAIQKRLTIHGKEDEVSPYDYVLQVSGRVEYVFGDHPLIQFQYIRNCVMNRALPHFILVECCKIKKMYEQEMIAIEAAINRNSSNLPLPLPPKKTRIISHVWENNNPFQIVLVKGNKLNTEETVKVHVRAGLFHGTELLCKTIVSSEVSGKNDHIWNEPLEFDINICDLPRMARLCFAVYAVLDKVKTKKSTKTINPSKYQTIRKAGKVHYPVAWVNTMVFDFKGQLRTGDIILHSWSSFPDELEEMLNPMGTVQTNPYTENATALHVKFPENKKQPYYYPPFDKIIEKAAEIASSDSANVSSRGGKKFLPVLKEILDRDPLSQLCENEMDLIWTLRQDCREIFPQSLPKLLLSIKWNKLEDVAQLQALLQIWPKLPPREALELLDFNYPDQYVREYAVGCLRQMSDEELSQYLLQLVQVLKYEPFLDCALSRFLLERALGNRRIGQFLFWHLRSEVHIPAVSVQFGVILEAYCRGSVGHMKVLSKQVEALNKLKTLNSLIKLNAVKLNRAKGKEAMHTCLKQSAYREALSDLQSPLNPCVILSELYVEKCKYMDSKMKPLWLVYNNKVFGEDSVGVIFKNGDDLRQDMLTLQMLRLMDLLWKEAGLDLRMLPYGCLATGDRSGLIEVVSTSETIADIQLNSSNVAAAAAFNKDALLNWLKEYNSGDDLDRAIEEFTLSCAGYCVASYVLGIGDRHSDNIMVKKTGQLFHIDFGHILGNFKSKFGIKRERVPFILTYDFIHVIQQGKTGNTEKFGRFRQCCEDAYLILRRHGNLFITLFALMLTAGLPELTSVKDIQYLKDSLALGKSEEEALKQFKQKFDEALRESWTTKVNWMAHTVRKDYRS
Sequence of PI3K-beta (P27986 whole entry partner, species assumed, the tested form may be a part): as the sequence (P27986 whole entry partner, species assumed) above
Sequence of PI3K-gamma (P48736 whole entry, species assumed): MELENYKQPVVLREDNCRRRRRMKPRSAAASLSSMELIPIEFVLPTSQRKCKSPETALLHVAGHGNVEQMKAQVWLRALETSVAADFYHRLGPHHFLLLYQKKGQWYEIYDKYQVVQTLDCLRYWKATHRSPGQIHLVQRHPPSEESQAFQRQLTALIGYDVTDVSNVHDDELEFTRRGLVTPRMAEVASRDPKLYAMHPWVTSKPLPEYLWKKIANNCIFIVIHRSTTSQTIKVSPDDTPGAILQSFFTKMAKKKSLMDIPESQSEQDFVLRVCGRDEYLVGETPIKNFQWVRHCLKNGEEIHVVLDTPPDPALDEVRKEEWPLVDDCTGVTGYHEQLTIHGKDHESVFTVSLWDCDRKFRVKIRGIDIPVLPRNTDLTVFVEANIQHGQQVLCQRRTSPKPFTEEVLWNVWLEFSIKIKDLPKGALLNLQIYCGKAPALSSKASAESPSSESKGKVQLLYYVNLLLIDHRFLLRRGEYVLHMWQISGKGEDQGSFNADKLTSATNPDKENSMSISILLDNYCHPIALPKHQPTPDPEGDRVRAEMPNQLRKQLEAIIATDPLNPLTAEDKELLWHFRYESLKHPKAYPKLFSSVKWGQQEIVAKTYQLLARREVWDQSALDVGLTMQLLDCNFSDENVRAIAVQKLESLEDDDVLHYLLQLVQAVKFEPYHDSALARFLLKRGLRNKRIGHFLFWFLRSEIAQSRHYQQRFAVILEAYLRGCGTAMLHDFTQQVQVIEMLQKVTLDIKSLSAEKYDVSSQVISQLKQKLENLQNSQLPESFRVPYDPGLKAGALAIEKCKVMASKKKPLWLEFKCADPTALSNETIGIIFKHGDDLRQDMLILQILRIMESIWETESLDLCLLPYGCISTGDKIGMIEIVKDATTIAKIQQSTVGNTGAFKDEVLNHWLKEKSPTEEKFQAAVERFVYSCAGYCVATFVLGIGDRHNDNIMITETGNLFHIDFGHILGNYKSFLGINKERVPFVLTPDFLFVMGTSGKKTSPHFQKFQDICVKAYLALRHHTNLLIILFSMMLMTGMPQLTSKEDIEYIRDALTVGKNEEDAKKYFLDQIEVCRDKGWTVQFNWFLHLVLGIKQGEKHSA

With `COc1ccc2c(c1)c(/C=C1\Oc3cc(O)cc(O)c3C1=O)c(C(F)(F)F)n2CCN1CCN(C)CC1` [Example 336, (2Z)-4,6-Dihydroxy-2-({5-methoxy-1-[2-(4-methylpiperazin-1-yl)ethyl]-2-(trifluoromethyl)-1H-indol-3-yl}methylene)-1-benzofuran-3(2H)-one], the half-maximal inhibitory concentration (IC50) at PI3K-delta was 1 nM; at PI3K-beta, 4.1 nM; at PI3K-alpha (read-out: PI3Kα Avg. IC50), 4 nM; at human TOR it was under 22 nM; against PI3K-gamma, 61.7 nM.
Turning to `COc1ccc2c(c1)c(C=C1Oc3cc(O)cc(O)c3C1=O)c(C)n2C` [Example 89, 4,6-dihydroxy-2-[(5-methoxy-1,2-dimethyl-1H-indol-3-yl)methylene]-1-benzofuran-3(2H)-one], the IC50 at PI3K-delta was found to be 8 nM; on PI3K-beta, 19 nM; on PI3K-alpha (PI3Kα Avg. IC50) it was 6.9 nM; at human TOR, 3.5 nM; on PI3K-gamma, 54.3 nM.
Regarding `COc1ccc2c(c1)c(/C=C1\Oc3cc(O)cc(O)c3C1=O)c(C(=O)N(C)C)n2CCO` [Example 348, 3-[(Z)-(4,6-Dihydroxy-3-oxo-1-benzofuran-2(3H)-ylidene)methyl]-1-(2-hydroxyethyl)-5-methoxy-N,N-dimethyl-1H-indole-2-carboxamide], the IC50 turned out to be 12.5 nM at PI3K-delta; 76.5 nM at PI3K-beta; 11.5 nM on PI3K-alpha (read-out: PI3Kα Avg. IC50); 17.5 nM on human TOR; 60.5 nM at PI3K-gamma.
As for `COc1ccc2[nH]c(-c3ccccc3)c(/C=C3\Oc4cccc(O)c4C3=O)c2c1` [Example 304, (2Z)-4-Hydroxy-2-[(5-methoxy-2-phenyl-1H-indol-3-yl)methylene]-1-benzofuran-3(2H)-one], the IC50 at PI3K-delta came out at 17 nM; at PI3K-beta, 128 nM; at PI3K-alpha (read-out: PI3Kα Avg. IC50), 54 nM; on human TOR it was 62 nM; at PI3K-gamma, 65 nM.
The matching figures for `O=C1/C(=C/c2c(-c3ccc(Cl)cc3)[nH]c3ccccc23)Oc2c1ccc(O)c2O` [Example 54, (2Z)-2-{[2-(4-chlorophenyl)-1H-indol-3-yl]methylene}-6,7-dihydroxy-1-benzofuran-3(2H)-one]: 33.5 nM, 98 nM, 111 nM, 9600 nM and 1060 nM.
The matching figures for `COc1ccc2[nH]c(C(=O)O)c(/C=C3\Oc4cc(O)cc(O)c4C3=O)c2c1` [Example 339, 3-[(Z)-(4,6-Dihydroxy-3-oxo-1-benzofuran-2(3H)-ylidene)methyl]-5-methoxy-1H-indole-2-carboxylic acid]: 20.3 nM, 93.7 nM, 5.5 nM, 39.5 nM and 8.5 nM.
The matching figures for `COc1ccc2c(c1)c(/C=C1\Oc3cc(O)ccc3C1=O)c(C(=O)N(C)C)n2CCCN(C)C` [Example 345, 1-[3-(Dimethylamino)propyl]-3-[(Z)-(6-hydroxy-3-oxo-1-benzofuran-2(3H)-ylidene)methyl]-5-methoxy-N,N-dimethyl-1H-indole-2-carboxamide]: 2 nM, 100 nM, 24 nM, over 4000 nM and 692 nM.
As to `COC(=O)c1ccc2[nH]cc(C=C3Oc4cc(O)cc(O)c4C3=O)c2c1` [Example 166, methyl 3-[(4,6-dihydroxy-3-oxo-1-benzofuran-2(3H)-ylidene)methyl]-1H-indole-5-carboxylate], the IC50 is 59 nM on PI3K-delta; 46 nM on PI3K-beta; 28 nM at PI3K-alpha (read-out: PI3Kα Avg. IC50); 1700 nM at human TOR; 180 nM on PI3K-gamma.
Regarding `COc1ccc2c(c1)c(/C=C1\Oc3cc(O)cc(O)c3C1=O)cn2CCCN(C)C` [Example 323, (2Z)-2-({1-[3-(Dimethylamino)propyl]-5-methoxy-1H-indol-3-yl}methylene)-4,6-dihydroxy-1-benzofuran-3(2H)-one], the IC50 came out at 4 nM at PI3K-delta; 120 nM at PI3K-beta; 20.5 nM at PI3K-alpha (read-out: PI3Kα Avg. IC50); 930 nM on human TOR; 605 nM at PI3K-gamma.
As for `COc1ccc2c(c1)c(/C=C1\Oc3cc(O)cc(O)c3C1=O)c(C(F)(F)F)n2CCO` [Example 332, (2Z)-4,6-Dihydroxy-2-{[1-(2-hydroxyethyl)-5-methoxy-2-(trifluoromethyl)-1H-indol-3-yl]methylene}-1-benzofuran-3(2H)-one], the half-inhibitory concentration (IC50) was 7.8 nM on PI3K-delta; 13.3 nM on PI3K-beta; 5 nM at PI3K-alpha (read-out: PI3Kα Avg. IC50); under 21 nM on human TOR; 22 nM at PI3K-gamma.
With `COc1ccc2[nH]c(-c3cnn(C)c3)c(/C=C3\Oc4cc(O)cc(O)c4C3=O)c2c1` [Example 330, (2Z)-4,6-Dihydroxy-2-{[5-methoxy-2-(1-methyl-1H-pyrazol-4-yl)-1H-indol-3-yl]methylene}-1-benzofuran-3(2H)-one], the half-maximal inhibitory concentration (IC50) at PI3K-delta was 1.5 nM; on PI3K-beta, 1 nM; at PI3K-alpha (read-out: PI3Kα Avg. IC50), under 1.8 nM; at human TOR, under 17 nM; at PI3K-gamma, 3 nM.
Consider `O=C1/C(=C/c2c(-c3ccc4ccccc4c3)[nH]c3ccccc23)Oc2c1ccc(O)c2O` [Example 55, (2Z)-6,7-dihydroxy-2-{[2-(2-naphthyl)-1H-indol-3-yl]methylene}-1-benzofuran-3(2H)-one], for which the IC50 at PI3K-delta was 32 nM; at PI3K-beta, 72 nM; on PI3K-alpha (read-out: PI3Kα Avg. IC50), 72.7 nM; on human TOR, 10000 nM; on PI3K-gamma it was 716 nM.
Take `Cc1c(C=C2Oc3cc(O)cc(O)c3C2=O)c2ccccc2n1CCCCCl` [Example 94, 2-{[1-(4-chlorobutyl)-2-methyl-1H-indol-3-yl]methylene}-4,6-dihydroxy-1-benzofuran-3(2H)-one]: the IC50 at PI3K-delta was 1020 nM; on PI3K-beta, 671 nM; on PI3K-alpha (read-out: PI3Kα Avg. IC50), 2240 nM; at human TOR it was over 5000 nM; against PI3K-gamma, 5860 nM.
For `COc1ccc2[nH]cc(/C=C3\Oc4cc(O)cc(O)c4C3=O)c2c1` [Example 59, (2Z)-4,6-dihydroxy-2-[(5-methoxy-1H-indol-3-yl)methylene]-1-benzofuran-3(2H)-one], the half-maximal inhibitory concentration (IC50) on PI3K-delta is 70 nM; at PI3K-beta it was 173 nM; against PI3K-alpha (PI3Kα Avg. IC50), 30.2 nM; at human TOR it was 265 nM; on PI3K-gamma, 269 nM.
Regarding `COc1ccc2c(c1)c(C=C1Oc3cc(O)cc(O)c3C1=O)c(C)n2CCCCN(C)C` [Example 101, 2-({1-[4-(dimethylamino)butyl]-5-methoxy-2-methyl-1H-indol-3-yl}methylene)-4,6-dihydroxy-1-benzofuran-3(2H)-one], the IC50 at PI3K-delta was 1 nM; at PI3K-beta it was 6.5 nM; at PI3K-alpha (read-out: PI3Kα Avg. IC50), 5.3 nM; at human TOR it was 46 nM; at PI3K-gamma it was 377 nM.
As to `COc1ccc2c(c1)c(/C=C1\Oc3cc(O)cc(O)c3C1=O)c(-c1c(C)noc1C)n2CCN1CCN(C)CC1` [Example 344, (2Z)-2-({2-(3,5-Dimethylisoxazol-4-yl)-5-methoxy-1-[2-(4-methylpiperazin-1-yl)ethyl]-1H-indol-3-yl}methylene)-4,6-dihydroxy-1-benzofuran-3(2H)-one], the IC50 on PI3K-delta worked out at 0.9 nM; at PI3K-beta it was 5.9 nM; at PI3K-alpha (read-out: PI3Kα Avg. IC50), 4.4 nM; at human TOR, 5.25 nM; against PI3K-gamma, 99 nM.
Regarding `COc1ccc2c(c1)c(/C=C1\Oc3cc(O)cc(O)c3C1=O)cn2CCO` [Example 317, (2Z)-4,6-Dihydroxy-2-{[1-(2-hydroxyethyl)-5-methoxy-1H-indol-3-yl]methylene}-1-benzofuran-3(2H)-one], the IC50 on PI3K-delta amounted to 8.5 nM; at PI3K-beta, 64 nM; at PI3K-alpha (read-out: PI3Kα Avg. IC50) it was 17 nM; at human TOR it was 77.5 nM; against PI3K-gamma it was 92.5 nM.
The matching figures for `COc1ccc2c(c1)c(/C=C1\Oc3cc(O)cc(F)c3C1=O)c(C)n2CCN1CCN(C)CC1` [Example 359, (2Z)-4-Fluoro-6-hydroxy-2-({5-methoxy-2-methyl-1-[2-(4-methylpiperazin-1-yl)ethyl]-1H-indol-3-yl}methylene)-1-benzofuran-3(2H)-one]: 1.5 nM, 18.5 nM, 11 nM, over 800 nM and 232 nM.
The matching figures for `COc1ccc2c(c1)c(C=C1Oc3cc(O)cc(O)c3C1=O)c(C)n2CCCCl` [Example 88, 2-{[1-(3-chloropropyl)-5-methoxy-2-methyl-1H-indol-3-yl]methylene}-4,6-dihydroxy-1-benzofuran-3(2H)-one]: 3.5 nM, 52 nM, 9.7 nM, under 21 nM and 73.7 nM.
The matching figures for `COc1ccc2c(c1)c(/C=C1\Oc3cc(O)cc(O)c3C1=O)c(C1CC1)n2CCn1cccn1` [Example 340, (2Z)-2-({2-Cyclopropyl-5-methoxy-1-[2-(1H-pyrazol-1-yl)ethyl]-1H-indol-3-yl}methylene)-4,6-dihydroxy-1-benzofuran-3(2H)-one]: 1.6 nM, 7.5 nM, 2 nM, under 0.82 nM and 3 nM.

Source of the values: patent US20090311217A1, “3-SUBSTITUTED-1H-INDOLE COMPOUNDS, THEIR USE AS MTOR KINASE AND PI3 KINASE INHIBITORS, AND THEIR SYNTHESES” (priority 2008, published 2009).
